Experimental data from US6369109B1, “Betulinic acid and derivatives thereof useful for the treatment of neuroectodermal tumor” (Deutsches Krebsforschungszentrum Stiftung des Offentlichen …, priority 1998, dated 2002).
Entries after “also recorded” stand apart in the source; their conditions may differ.

How the values were obtained:
[1] = test system: caspase-3, caspase-8 and PARP in cytosolic extracts from SHEP cells; assay: Cleavage of caspases in cytosolic extracts by cytochrome c or AIF; type: biochemical, human; details: FIG. 11A
Experimental: For determination of nuclear fragmentation, nuclei (10^3/μl) were incubated with mitochondria (1 μg/μl) in buffer D (10 mM HEPES, pH 7.4, 50 mM NaCl, 2 mM MgCl2, 5 mM EGTA, 1 mM DDT, 2 mM ATP, 10 mM phosphocreatine, 50 μg/ml creatine kinase, 10 μM cytochalasin B) for 2 h at 37° C. Nuclei were stained with propidium iodide ([…]) and analyzed by flow cytometry. For determination of caspase activation, cytosolic extracts (2 μg/μl) were incubated with mitochondria (1 μg/μl), cytochrome c (0.1-100 μM) or AIF-containing mitochondrial supernatant (0.5 μg/μl) in buffer D for 2 h at 37° C. Partially purified AIF (cytochrome c-free) was prepared as previously described (0.5 mg/ml, Susin et al., 1997, J. Exp. Med. 186, 5-37; Susin et al., 1996, J. Exp. Med. 184, 1331-41). Proteins were separated by 15% SDS-PAGE and Western blot analysis was performed as described above. To confirm equal loading of mitochondrial protein, all Western blots were also developed with an antibody directed against a 60 kDa mitochondrial antigen (data not shown).
Cytosolic extracts from SHEP cells were incubated with 0.1-100 μM cytochrome c. Immunodetection of caspases-3, -8 and PARP was performed as described in FIG. 9A.
Cytosolic extracts from SHEP cells transfected with a neomycin resistance vector only (Nec) or bcl-2 were incubated with partially purified AIF. Immunodetection of caspases-3, -8 and PARP was performed as described for FIG. 9A.
For determination of nuclear fragmentation, nuclei (10^3/μl) were incubated with mitochondria (1 μg/μl) in buffer D (10 mM HEPES, pH 7.4, 50 mM NaCl, 2 mM MgCl2, 5 mM EGTA, 1 mM DDT, 2 mM ATP, 10 mM phosphocreatine, 50 μg/ml creatine kinase, 10 μM cytochalasin B) for 2 h at 37° C. Nuclei were stained with propidium iodide ([…]) and analyzed by flow cytometry (Susin et al., 1997 Exp. Cell Res. 236:397-403). For determination of caspase activation, cytosolic extracts (2 μg/μl) were incubated with mitochondria (1 μg/μl), cytochrome c (10 μM) or AIF-containing mitochondrial supernatant (0.5 μg/μl) in buffer D for 2 h at 37° C. […]

[2] = test system: IMR-5 cells; assay: Specific apoptosis induction by betulinic acid derivatives; type: cell-based; details: FIG. 17B
Experimental: (§1) Quantification of DNA fragmentation was performed by FACS analysis of propidium iodide stained nuclei as described in Nicoletti et al, 1991, J. Immunol. Methods. 139: 271-279. Cells were analyzed for DNA content by flow. cytometry (FACScan, Becton Dickinson, Heidelberg, Germany) using CELLQuest software. Early apoptotic changes were identified by staining with biotinylated annexin V (Bender Med Systems, Vienna, Austria) following the manufacturer's instructions. Annexin V binds to exposed phosphatidylserine on the surface of apoptotic cells. Koopman et al, 1994, Blood. 84:1415-1420. Cells were analyzed by flow cytometry (FAC-Scan. Becton Dickinson) using CELLQuest software.
(§2) More specifically, betulinic acid, 28-acetyl-3-β-D-glucosyl betulin (“B10”), 3-β-28-hydroxylup-20(29)-en-3-yl-β-D-glucopyranoside (“B11”), 3-β-3-hydroxylup-20(29)-en-28-yl-β-D-glucopyranoside (“B12”), and 3-(β-D-glucopyranosyloxy)lup-20(29)-en-28-oic acid (“B13”) have been tested for specific apoptosis induction using the assays shown in Example 2. See, supra. […] (FIG. 17B).

[3] = test system: Kelly cells; assay: as above; type: cell-based; details: FIG. 17C
Experimental: as §1, §2

[4] = test system: melanoma cell line (MEL-2); details: previously reported; cited from earlier work
[5] = 0.1-100 μM (Ex. 3) or 10 μM (Ex. 4) cytochrome c, partially purified AIF or AIF-containing supernatant, 11B, 16B

With cytochrome c the “cleavage of caspase-3 in cytosolic extracts” value [1, 5] was “triggered the proteolytic processing of caspase-3 to its active subunits; also recorded: resulted in the processing of caspase-3 and PARP”, the “cleavage of caspase-8 in cytosolic extracts” value [1, 5] was “did not induce caspase-8 cleavage; also recorded: did not induce caspase-8 activation” and the “cleavage of PARP in cytosolic extracts” value ([1]; 0.1-100 μM cytochrome c) was “caused caspase-mediated cleavage of PARP”.
In the case of `C=C(C)[C@@H]1CC[C@]2(CO)CC[C@]3(C)[C@H](CC[C@@H]4[C@@]5(C)CC[C@H](O[C@@H]6O[C@H](CO)[C@@H](O)[C@H](O)[C@H]6O)C(C)(C)[C@@H]5CC[C@]43C)[C@@H]12` [B11, 3-β-28-hydroxylup-20(29)-en-3-yl-β-D-glucopyranoside], the “apoptotic activity compared to betulinic acid” value [2] is reported as “about the same activity as betulinic acid” and the “apoptotic activity compared to betulinic acid” value [3] is reported as “at least as high as betulinic acid”.
For `C=C(C)[C@@H]1CC[C@]2(C(=O)O)CC[C@]3(C)[C@H](CC[C@@H]4[C@@]5(C)CC[C@H](O)C(C)(C)[C@@H]5CC[C@]43C)[C@@H]12` [betulinic acid, 3β-3-hydroxylup-20(29)-en-28-oic acid], the cytotoxicity [4] is given as “exert cytotoxicity”.
For `C=C(C)C1CCC2(C(=O)O)CCC3(C)C(CCC4C5(C)CCC(OC6OC(CO)C(O)C(O)C6O)C(C)(C)C5CCC43C)C12` [B13, 3-(β-D-glucopyranosyloxy)lup-20(29)-en-28-oic acid], the “apoptotic activity compared to betulinic acid” value [2] was “enhanced apoptotic activity” and the “apoptotic activity compared to betulinic acid” value [3] was “at least as high as betulinic acid”.
For `C=C(C)C1CCC2(COC(C)=O)CCC3(C)C(CCC4C5(C)CCC(OC6OC(CO)C(O)C(O)C6O)C(C)(C)C5CCC43C)C12` [B10, 3β-28-(acetyloxy)lup-20(29)-en-3-yl-β-D-glucopyranoside], the “apoptotic activity compared to betulinic acid” value [2] was “enhanced apoptotic activity” and the “apoptotic activity compared to betulinic acid” value [3] was “at least as high as betulinic acid”.
In the case of `C=C(C)C1CCC2(COC3OC(CO)C(O)C(O)C3O)CCC3(C)C(CCC4C5(C)CCC(O)C(C)(C)C5CCC43C)C12` [B12, 3-β-3-hydroxylup-20(29)-en-28-yl-β-D-glucopyranoside], the “apoptotic activity compared to betulinic acid” value [2] is reported as “enhanced apoptotic activity” and the “apoptotic activity compared to betulinic acid” value [3] is reported as “at least as high as betulinic acid”.
